Tests used:
[1] = tested on: MCF-7 (ER+) human derived breast carcinoma cells; test: Growth inhibitory assay (MTT), MCF-7; type: cell-based; conditions: MCF7, ER+ MCF-7, 3 days (72 h) treatment, n=8, representative mean, ^a = biphasic dose response
Experimental: (§1) Prodrugs were prepared as 10 mM top stocks, dissolved in dimethylsulphoxide (DMSO) or sterile ddH2O, and stored at 4°C, protected from light for a maximum period of 4 weeks. MCF-7 (ER+) and MDA 468 (ER−) human derived breast carcinoma cells, cultivated at 37°C in an atmosphere of 5% CO2 in RPMI 1640 medium supplemented with 2 mM L-glutamine and 10% foetal calf serum, were routinely subcultured twice weekly to maintain continuous logarithmic growth. Cells were seeded into 96-well microtiter plates at a density of 5×10^3 per well and allowed 24 h to adhere before drugs were introduced (final concentration 0.1 nM–100 μM, n=8). Serial drug dilutions were prepared in medium immediately prior to each assay. Viable cell masses at the time of drug addition (time-zero), and following 72 h drug exposure were determined by cell-mediated 3-(4,5-dimethylthiazol-2-yl)-2,5-diphenyltetrazolium bromide (MTT) reduction. MTT was added to each well (final concentration 400 μg ml^−1) and plates were incubated at 37°C for 4 h to allow reduction of MTT by viable cell dehydrogenases to an insoluble formazan product. Well supernatants were aspirated and cellular formazan solubilised by addition of DMSO : glycine buffer (pH 10.5) (4 : 1). Cell growth as well as drug activity were determined by measuring absorbance at 550 nm using an Anthos Labtec systems plate reader.

[2] = tested on: MDA 468 (ER−) human derived breast carcinoma cells; test: Growth inhibitory assay (MTT), MDA 468; type: cell-based; conditions: Breast carcinoma cell, ER− MDA 468, 3 days (72 h) treatment, n=8, representative mean, ^a = biphasic dose response
Experimental: as §1

[3] = tested on: CYP1A1 activity (EROD) in MCF-7 cells; test: Induction of EROD activity in lysates of treated MCF-7 cells; type: cell-based, human; conditions: lysates of MCF-7 cells treated with 1 μM, 24 h; negligible activity in untreated lysates; mean of three, s.d. <10%
Experimental: (§2) A sensitive and rapid fluorometric assay was used to measure EROD activity ([Burke et al, 1994]). Incubation mixtures (total 1 ml) consisted of 100 mM Tris-HCl (pH 7.4), 50 μM MgCl2, 100 μM 7-ethoxyresorufin and 100 μl cell homogenate. Homogenates were prepared following treatment of cells for 24 h with compounds 1, 2, 2a, 2b, 3, 3a, 3b, 4, 4a and 4b or vehicle alone and protein content determined (n=3). Thus induction of ethoxyresorufin O-deethylation by agents under study, catalysed by CYP1A1 activity, could be determined. Alternatively, microsomes expressing recombinant CYP1A1 (0.1 mg ml^−1) provided the enzyme source for EROD catalysis, in the presence or absence of drug, in order to determine inhibition of CYP1A1 activity by compounds 1, 2, 2a, 2b, 3, 3a, 3b, 4, 4a and 4b. Incubation mixtures were pre-incubated for 5 min at 37°C before initiation of reaction by addition of NADPH (500 μM). Following further incubations at 37°C (30 min for cell homogenates, 15 min for CYP1A1 microsomes), reactions were terminated by addition of 3 ml ice-cold acetonitrile. Reaction mixtures were centrifuged (1400 r.p.m., 10 min) before analyses of supernatants. Fluorescence was read on a Perkin-Elmer LS-5 luminescence spectrometer (excitation, 530 nm; emission 585 nm). Estimation of resorufin reaction product (pmoles mg^−1 protein, pmoles 100 μg^−1 microsomes), as a measure of CYP1A1 activity, was determined following performance of a resorufin standard curve.

CYP1A1 [4] = molecular target: T1, CYP1A1 (Homo sapiens, UniProt P04798); test: Inhibition of recombinant CYP1A1 microsomal EROD activity; type: biochemical; conditions: microsomes expressing recombinant CYP1A1, pH 7.4, probe 7-ethoxyresorufin (100 μM); 30 μM agent; incubates without drug = 100% activity; mean of three, s.d. <10%; read-out: Microsomal CYP1A1 EROD activity (% control)
T1 sequence (P04798 1-512): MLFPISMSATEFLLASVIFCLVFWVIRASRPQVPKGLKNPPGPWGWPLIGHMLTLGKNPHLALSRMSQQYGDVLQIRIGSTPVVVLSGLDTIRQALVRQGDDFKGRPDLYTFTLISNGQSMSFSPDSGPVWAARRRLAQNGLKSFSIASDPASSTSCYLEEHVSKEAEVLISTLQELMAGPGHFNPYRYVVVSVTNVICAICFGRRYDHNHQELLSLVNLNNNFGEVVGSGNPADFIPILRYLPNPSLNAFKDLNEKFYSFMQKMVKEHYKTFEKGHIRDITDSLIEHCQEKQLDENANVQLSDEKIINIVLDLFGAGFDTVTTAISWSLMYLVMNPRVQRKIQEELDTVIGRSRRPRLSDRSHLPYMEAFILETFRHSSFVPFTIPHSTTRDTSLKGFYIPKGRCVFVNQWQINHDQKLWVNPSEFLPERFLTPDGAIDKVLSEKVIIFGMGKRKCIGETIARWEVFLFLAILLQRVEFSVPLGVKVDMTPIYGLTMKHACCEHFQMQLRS
Experimental: as §2

[5] = tested on: CYP1A1 protein expression in MCF-7 cells; test: Western blot of CYP1A1 protein, MCF-7 lysates; type: cell-based, human; conditions: 1 μM, 24 h
Experimental: (§3) Whole cell lysates were prepared for examination of CYP1A1 protein expression from untreated MCF-7, IGROV-1 and HCT 116 cultures and following exposure of cells to compounds 1, 2, 2a, 2b, 3, 3a, 3b, 4, 4a and 4b. Following protein determination (n=3, [Bradford, 1976]) and addition of sample buffer, samples were boiled at 95°C for 5 min and solubilised proteins (50 μg) were separated by sodium dodecyl sulphate (SDS) polyacrylamide gel (10%) electrophoresis. Proteins were electroblotted to polyvinylidene difluoride (PVDF) membranes and probed for CYP1A1 protein with polyclonal antiserum specific for human CYP1A1/1A2 (Gentest Corporation). Secondary antibody was conjugated to alkaline phosphatase, and CYP1A1 was detected following brief (<10 min) incubation with bromochloroindolyl phosphate and nitro-blue tetrazolium in alkaline phosphatase buffer. Molecular weight markers and a positive control of recombinant CYP1A1 (Gentest Corporation), included in all blots, confirmed detection of 52 kDa CYP1A1 protein.

MCF-7 cells = test: Prodrug uptake, conversion and metabolism (HPLC of media), MCF-7; type: in vitro ADME, human; conditions: for Biotransformation products of liberated parent amine in media: prodrug 10 μM, days 1–7
Experimental: (§4) MCF-7 cells were seeded into 25 ml flasks at appropriate densities (5×10^5–5×10^6). After 24 h, medium was changed and drug introduced at a final concentration of 10 μM. Media samples, collected from flasks at time zero and 24 h intervals, were mixed with 1.5-fold volumes of high performance liquid chromatography (HPLC) grade acetonitrile to precipitate protein and centrifuged at 14 000 g for 5 min. Supernatants (600 μl) were mixed with 400 μl 10% acetonitrile in 1% acetic acid and analysed by HPLC. The system consisted of Beckman System Gold equipment (solvent module 128, autosampler 507e and multiple wavelength UV detector 168). Separation of parent compounds and biotransformation products was effected at room temperature on a Phenomenex Aqua C18 reversed-phase column (150×4.6 mm). The mobile phase was formed by increasing, then decreasing the acetonitrile concentration in 1% acetic acid over 20 min by mixing two solutions: acetonitrile-water-acetic acid (10 : 90 : 1, v v^−1) and acetonitrile-water-acetic acid (80 : 20 : 1 v v^−1) and delivered at a flow rate of 1 ml min^−1. Compounds were detected at 324 nm.

T47D breast cells = test: Prodrug uptake, conversion and metabolism (HPLC of media), T47D; type: in vitro ADME, human
Experimental: as §4, with “The mobile phase was formed by increasing, then decreasing the acetonitrile concentration in 1% acetic acid over 20 min by mixing two solutions: acetonitrile-water-acetic acid (10 : 90 : 1, v v^−1) and acetonitrile-water-acetic acid (80 : 20 : 1 v v^−1) and delivered at a flow rate of 1 ml min^−1.” left out
(§5) Uptake and metabolism of compounds 1a and 1b were examined in sensitive breast (MCF-7 and T47D) and insensitive renal (A498) cells using HPLC conditions which allow simultaneous detection of prodrug, parent amine and metabolites. When incubated at 0.1, 1 or 10 μM over 7 days at 37°C, the lysyl-amide compound 1a was most readily removed from the media supporting MCF-7 and T47D cells (Figure 2

A498 renal cells = test: Prodrug uptake, conversion and metabolism (HPLC of media), A498; type: in vitro ADME, human
Experimental: as §4, with “The mobile phase was formed by increasing, then decreasing the acetonitrile concentration in 1% acetic acid over 20 min by mixing two solutions: acetonitrile-water-acetic acid (10 : 90 : 1, v v^−1) and acetonitrile-water-acetic acid (80 : 20 : 1 v v^−1) and delivered at a flow rate of 1 ml min^−1.” left out
as §5

[6] = Stability in human plasma; type: in vitro ADME; conditions: 37°C; no free amine detected
Excerpt: Data have been presented describing the in vitro biological properties of alanyl and lysyl amide derivatives of 2-(4-amino-3-methylphenyl)benzothiazoles. Prodrugs are rapidly depleted from nutrient media, generating their parent species in the presence of cells (Figures 2 and 3). In the absence of cells, no spontaneous hydrolysis of the amide bond occurs to release the amine from its amino acid salt. The cleavage of amino acid amides may be catalysed by ubiquitously expressed aminopeptidases, but subsequent bioactivating steps, essential for the mechanism of action of aminophenylbenzothiazoles, take place selectively in sensitive cell lines (e.g. Figure 5). Compounds 1a and 1b were stable when incubated at 37°C with human plasma; specifically, no free amine was detected.

[7] = tested on: CYP1A1 protein expression in HCT 116 cells; test: Western blot of CYP1A1 protein, HCT 116 lysates; type: cell-based, human
Experimental: as §3

CYP1A1 [8] = molecular target: T1, CYP1A1; parameters: method as in Chua et al, 2000; conditions: ref Chua et al, 2000; cited from earlier work

Cc1cc(-c2nc3cc(F)c(F)cc3s2)ccc1N [Compound 4]
GI50 [1]: < 0.1 nM
GI50 [2]: 3.55 nM
Induction EROD activity [3]: 32.02 nM resorufin mg^-1 protein
activity at 15 min, 30 μM (CYP1A1 [4]): 43.1%
CYP1A1 protein expression (Western blot) [5]: induced
Biotransformation products of liberated parent amine in media (MCF-7 cells): emergence of an oxidative metabolite

Cc1cc(-c2nc3cc(F)c(F)cc3s2)ccc1NC(=O)[C@@H](N)CCCCN [Compound 4b]
GI50 [1]: 30.7 nM
GI50 [2]: 302 nM
Induction EROD activity [3]: 20.04 nM resorufin mg^-1 protein
activity at 15 min, 30 μM (CYP1A1 [4]): 54.9%
CYP1A1 protein expression (Western blot) [5]: induced

Cc1cc(-c2nc3ccc(F)cc3s2)ccc1NC(=O)[C@H](C)N [Compound 3a]
GI50 [1]: 43.5 nM
GI50 [2]: 297 nM
Induction EROD activity [3]: 20.40 nM resorufin mg^-1 protein
activity at 15 min, 30 μM (CYP1A1 [4]): 28.9%
CYP1A1 protein expression (Western blot) [5]: induced

Cc1cc(-c2nc3ccccc3s2)ccc1NC(=O)[C@H](C)N [Compound 1a]
GI50 [1]: 0.32 nM
GI50 [2]: 39.9 nM
Hydrolysis of prodrug to parent amine (T47D breast cells; 10 μM, sensitive ER+ T47D breast cells, 37°C): rapidly and efficiently hydrolysed
Hydrolysis of prodrug to parent amine (A498 renal cells; 10 μM, insensitive A498 renal cells, 37°C): rapidly and efficiently hydrolysed
Stability in human plasma [6]: stable

Cc1cc(-c2nc3cc(F)ccc3s2)ccc1NC(=O)[C@H](C)N [Compound 2a]
GI50 [1]: 5.8 nM
GI50 [2]: 37.7 nM
Induction EROD activity [3]: 28.37 nM resorufin mg^-1 protein
activity at 15 min, 30 μM (CYP1A1 [4]): 40.6%
CYP1A1 protein expression (Western blot) [5]: induced

Cc1cc(-c2nc3ccccc3s2)ccc1N [Compound 1, 2-(4-amino-3-methylphenyl)benzothiazole]
GI50 [1]: < 0.1 nM
GI50 [2]: < 0.1 nM
Induction EROD activity [3]: 17.58 nM resorufin mg^-1 protein
activity at 15 min, 30 μM (CYP1A1 [4]): 22.6%
CYP1A1 protein expression (Western blot) [5]: induced
CYP1A1 protein expression (Western blot) [7]: not induced
Time of peak media level of regenerated parent amine (MCF-7 cells; regenerated from amide prodrugs, 7 day incubation): 3 days
Time of peak media level of regenerated parent amine (T47D breast cells; T47D cells, regenerated from amide prodrugs, 7 day incubation): 3 days
Removal of effluxed parent amine from media (A498 renal cells; inherently resistant A498 cells, 7 day incubation): negligible net removal
Inhibition of CYP1A1 microsome activity (CYP1A1 [8]): irreversibly inhibited

Cc1cc(-c2nc3ccc(F)cc3s2)ccc1NC(=O)[C@@H](N)CCCCN [Compound 3b]
GI50 [1]: 147 nM
GI50 [2]: 328 nM
Induction EROD activity [3]: 19.88 nM resorufin mg^-1 protein
activity at 15 min, 30 μM (CYP1A1 [4]): 47%
CYP1A1 protein expression (Western blot) [5]: induced

Cc1cc(-c2nc3ccccc3s2)ccc1NC(=O)[C@@H](N)CCCCN [Compound 1b]
GI50 [1]: 41.6 nM
GI50 [2]: 67.1 nM
Stability in human plasma [6]: stable

Cc1cc(-c2nc3cc(F)c(F)cc3s2)ccc1NC(=O)[C@H](C)N [Compound 4a]
GI50 [1]: 33 nM
GI50 [2]: 220 nM
Induction EROD activity [3]: 17.09 nM resorufin mg^-1 protein
activity at 15 min, 30 μM (CYP1A1 [4]): 41.9%
CYP1A1 protein expression (Western blot) [5]: induced

Cc1cc(-c2nc3ccc(F)cc3s2)ccc1N [Compound 3]
GI50 [1]: 0.65 nM
GI50 [2]: 0.73 nM
Induction EROD activity [3]: 32.60 nM resorufin mg^-1 protein
activity at 15 min, 30 μM (CYP1A1 [4]): 36.4%
CYP1A1 protein expression (Western blot) [5]: induced
CYP1A1 protein expression (Western blot) [7]: not induced
Biotransformation products of liberated parent amine in media (MCF-7 cells): emergence of an oxidative metabolite

— paper PMC2375326, “In vitro evaluation of amino acid prodrugs of novel antitumour 2-(4-amino-3-methylphenyl)benzothiazoles” (British Journal of Cancer, 2002)
